One molecule from US7897610B2, “Use of benzo[c]quinolizinium derivatives for the treatment of diseases that are linked to smooth muscle cell constriction” (Centre National de la Recherche Scientifique, priority 2002, dated 2011) can be followed below.

Each structure is given as a SMILES string. Several values for one entry are separate records, joined by “and”; a condition that tells them apart may be missing. Equal values may be shown once. Read-outs that look alike come from different tables or passages of the source.

In the assay the test system is aorta rings isolated from rats. The assay can be described thus: Isolated organ technique: relaxation of rat aorta rings pre-contracted in hyperpotassium solution (80 mM KCl). The settings on record: for EC50: Rattus norvegicus. It is filed as cell-based. The procedure: The experiments are carried out on the thoracic aorta of male rats of Wistar strain weighing 200 to 250 g, 7 to 8 weeks of age. The rat is stunned then placed in the supine position. After thoracotomy, the segment of the aorta comprised between the diaphragm and the right aortic arch is excised. The portion of aorta is immediately placed in a buffered physiological solution of modified Krebs type. The aorta is sectioned into 5 mm rings.
For certain preparations, the endothelium is removed mechanically using a needle surrounded by a wire which is turned in the aorta ring.
The aorta rings, after dissection, are suspended between two hooks one of which is fixed and the other is mobile. This mounting is placed in a chamber of Plexiglas (Emka Technologies), thermostatically-controlled at 37° C., containing 5 ml of physiological solution oxygenated by a gas mixture (95% O2-5% CO2). The thermostatically-controlled enclosure is supplied by a water bath. The mobile hook is suspended with a sensor connected to the interface (electromechanical transducer). This interface is connected on the one hand to an amplifier (amplification of the signal) and on the other hand to a computer (display and analysis of the signal). The IOX 1.565 program enables the processing and display of the signals on the computer screen. The Data Analyst and Prism 3.0 programs allow analysis of the results.
After mounting the aorta rings in the experimental device, these are stretched at a basal tension of 2.5 g. This tension corresponds to the optimum point of their tension/length relationship. Waiting for a stable state in the reference physiological medium is carried out over a period of approximately 1 hour with washing every 20 minutes. Following this equilibration period, the different experiments are carried out.
In order to be free of the relaxation/contraction mechanisms due to the endothelium, certain preparations are made devoid of the latter by mechanical destruction. In order to ensure effective destruction of the endothelium, a cholinergic test (ACh 10^−4 M) is carried out at the end of the first period of equilibration, on preparations pre-contracted by a hyperpotassium solution (80 mM of KCl).
Following this test, the preparations are subjected to several successive washings in order to re-establish a stable state. Once a stable state is reached, the different experiments can be carried out. The contractures due to the hyperpotassium solutions are obtained by the total replacement of the reference physiological solution by the hyperpotassium solution. The administration of the pharmacological substances is carried out in a cumulative fashion and directly in the isolated organ chambers whilst paying attention that the additional volume is not too high. The application of each new concentration only occurs after stabilization. In order to be aware of the reactivity state of the preparation at the end of manipulation, a hyperpotassium or noradrenergic test is carried out. If the preparation reacts in the direction of a contracture, the test is valid.
The composition of the reference physiological solution is a solution of modified Krebs type: NaCl: 120 mM; KCl: 4.7 mM; CaCl2: 2.5 mM; MgCl2: 1.2 mM; NaH2PO4: 1.2 mM; NaHCO3: 15 mM; Hepes: 10 mM; Glucose: 11 mM; pH=7.4. Hyperpotassium solutions containing different concentrations of KCl have been prepared according to the same principle. These solutions are used to provoke a contracture of the aorta ring by depolarisation of the smooth muscle cells. The hyperpotassium solution mainly used in the experiments contains 80 mM of KCl.

In the case of `Oc1cc2cccc[n+]2c2c(Cl)cccc12.[Cl-]` [MPB-07, 6-hydroxy-10-chlorobenzo[c]quinolizinium chloride], the EC50 (aorta rings with endothelium, 80 mM KCl, n=14, read-out: EC50, relaxation) worked out at 132.4 ± 0.02 µM; the EC50 (aorta rings without endothelium, 80 mM KCl, n=7, read-out: EC50, relaxation) was 92.9 ± 0.02 µM; the EC50 (comparison of FIG. 6, read-out: EC50, dose/response curves) was 133 µM; the EC50 (summary statement of results, read-out: EC50, vasorelaxant effect) came out at 134 µM; the EC50 (with endothelium + L-NAME 10^-4 M, n=8, read-out: EC50, relaxation) was determined as 51.8 ± 0.008 µM; the EC50 (without endothelium + L-NAME, n=7, read-out: EC50, relaxation) was determined as 55.1 ± 0.2 µM. In addition, the “reversibility of the relaxing effect” value (single dose 135 μM, with endothelium, after washing) is “reversible”. Besides, the relaxation was 33±6.15% (with endothelium + L-NAME, 40 μM); 98±1.3% (with endothelium + L-NAME, 160 μM); 24±1.6% (with endothelium, 80 μM); 64% (with endothelium, 160 μM); 88% (with endothelium, 250 μM); 96±1.75% and 100% (with endothelium, 500 μM). The relaxation runs as follows: (without endothelium, 80 μM) 37±5.6%; (without endothelium, 250 μM) 99±1%.
